The values that follow come from patent US20230175066A1, “ANALYSIS/DIAGNOSIS METHOD UTILIZING RNA MODIFICATION” (OSAKA UNIVERSITY, priority 2018, published 2023).

Data set [1] has as its system trifluridine resistant strain of cancer cell strain DLD-1. The experiment in a line: IC50 for trifluridine in the trifluridine resistant strain prepared from DLD-1. The class given is cell-based. The settings on record: Homo sapiens; DLD-1 after maintenance culture for 6 months or more in the presence of trifluridine (about 10 mg/mL). On the procedure:
The cancer cell strain DLD-1 obtained from a cell bank such as ATCC or RIKEN was subjected to maintenance culture for 6 months or more in the presence of trifluridine (FTD) (Aldrich-Sigma) (about 10 mg/mL). The maintenance culture was subcultured about twice a week to maintain 60 to 80% confluence at 37° C. in a serum 10% added DMEM medium on a plastic dish.

Data set [2] has as its system DLD-1 cell strain, 5-FU resistant strain, FTD resistant strain. Further details: methylation on microRNA, FTD resistant strain / miRNA methylation, FTD resistant strain: unit not given here. The note with it: for Rate of change, FTD resistance (fold) / Rate of change, FTD (fold): FTD resistant versus parental strain; for methylation on microRNA, FTD parental strain / methylation on microRNA, FTD resistant strain: RIP sequencing; for methylation on microRNA, FTD parental strain: DLD-1, FTD parental strain; for methylation on microRNA, FTD resistant strain: DLD-1 FTD resistant strain; for miRNA methylation, FTD parental strain / miRNA methylation, FTD resistant strain: miRNAs that decrease post-surgery. How it is done:
For an original DLD-1 cell strain and each resistant strain (5-FU resistant strain and FTD resistant strain), RNA methylation analysis in accordance with the protocol for RIP sequencing described above and microarray or mRNA expression analysis similar to the qRT-PCR of Example 2-2 was performed. RIP sequencing and RNA expression information based primary component analysis (two dimensional projection using a component resulting in maximum dispersion) was performed. The results are represented as mean ± standard deviation (SD) based on three independent experiments. The statistical significance of the results was evaluated by pairwise T-TEST using R version 3.4.3 (2017-11-30) on Microsoft Excel® software (Microsoft Campus, Redmond, WA, USA). P value < 0.05 was considered statistically significant. As a result, wild-type strain and each resistant strain was clearly distinguished. […] Total RNA was purified in accordance with the protocol for Trizol (Invitrogen) from the original DLD-1 cell strain and each resistant strain (5-FU resistant strain and FTD resistant strain), and then RNA methylation analysis was performed according to the protocol for RIP sequencing described above. Ribo-Zero rRNA Removal Kit (Illumina) was used for the removal of rNRAs.

Consider `O=c1[nH]c(=O)n([C@H]2C[C@H](O)[C@@H](CO)O2)cc1C(F)(F)F` [trifluridine], for which the IC50 in data set [1] came to 300 µM.

Take “miR-378d (ACUGGACUUGGAGUCAGAAA; chemistry not fully specified; listed as Homo sapiens)”: in data set [2], the “Rate of change, 5-FU resistance (fold)” value was 1.54 fold; the “methylation on microRNA, 5-FU parental strain” value is 144; the “methylation on microRNA, 5-FU resistant strain” value came to 30; the “Rate of change, FTD resistance (fold)” value is recorded as 0.36 fold. Also, in data set [2], the “methylation on microRNA, FTD parental strain” value came out at 80 and the “methylation on microRNA, FTD resistant strain” value is 63.

On to “miR-378e (ACUGGACUUGGAGUCAGGA; chemistry not fully specified; listed as Homo sapiens)”, for which, in data set [2], the “Rate of change, 5-FU resistance (fold)” value is reported as 1.64 fold; the “methylation on microRNA, 5-FU parental strain” value stood at 11; the “methylation on microRNA, 5-FU resistant strain” value is recorded as 2; the “Rate of change, FTD resistance (fold)” value came to 0.86 fold. In addition, in data set [2], the “methylation on microRNA, FTD parental strain” value is 3 and the “methylation on microRNA, FTD resistant strain” value was 6.

As for “miR-378f (ACUGGACUUGGAGCCAGAAG; chemistry not fully specified; listed as Homo sapiens)”, in data set [2], the “Rate of change, 5-FU resistance (fold)” value was determined as 0.67 fold; the “methylation on microRNA, 5-FU parental strain” value is 3; the “methylation on microRNA, 5-FU resistant strain” value is 1; the “Rate of change, FTD resistance (fold)” value is reported as “(0.50) fold”. For the same compound, in data set [2], the “methylation on microRNA, FTD parental strain” value was 2 and the “methylation on microRNA, FTD resistant strain” value is given as 1.

Regarding “miR-378h (ACUGGACUUGGUGUCAGAUGG; chemistry not fully specified; listed as Homo sapiens)”, in data set [2], the “Rate of change, 5-FU resistance (fold)” value was determined as 0.00 fold; the “methylation on microRNA, 5-FU parental strain” value amounted to 1; the “methylation on microRNA, 5-FU resistant strain” value came to 0; the “methylation on microRNA, FTD parental strain” value turned out to be 0. For the same compound, the “methylation on microRNA, FTD resistant strain” value in data set [2] was determined as 0.

With “miR-378i (ACUGGACUAGGAGUCAGAAGG; chemistry not fully specified; listed as Homo sapiens)”, in data set [2], the “Rate of change, 5-FU resistance (fold)” value was 0.50 fold; the “methylation on microRNA, 5-FU parental strain” value is reported as 18; the “methylation on microRNA, 5-FU resistant strain” value was 1; the “Rate of change, FTD resistance (fold)” value is 0.33 fold. In data set [2], the “methylation on microRNA, FTD parental strain” value is recorded as 6 and the “methylation on microRNA, FTD resistant strain” value is 3.

Consider “miR-492 (AGGACCUGCGGGACAAGAUUCUU; chemistry not fully specified; listed as Homo sapiens)”, for which, in data set [2], the “methylation on microRNA, 5-FU parental strain” value was found to be 0; the “methylation on microRNA, 5-FU resistant strain” value was 0; the “methylation on microRNA, FTD parental strain” value amounted to 0; the “methylation on microRNA, FTD resistant strain” value is reported as 0.

On to “miR-3122 (GUUGGGACAAGAGGACGGUCUU; chemistry not fully specified; listed as Homo sapiens)”, for which, in data set [2], the “methylation on microRNA, 5-FU parental strain” value stood at 0; the “methylation on microRNA, 5-FU resistant strain” value is 2; the “methylation on microRNA, FTD parental strain” value was found to be 0; the “methylation on microRNA, FTD resistant strain” value is reported as 0.

With “miR-3131 (UCGAGGACUGGUGGAAGGGCCUU; chemistry not fully specified; listed as Homo sapiens)”, in data set [2], the “Rate of change, 5-FU resistance (fold)” value is recorded as “(0.33) fold”; the “methylation on microRNA, 5-FU parental strain” value came to 9; the “methylation on microRNA, 5-FU resistant strain” value is on record as 3; the “Rate of change, FTD resistance (fold)” value was “(10.00) fold”. For the same compound, in data set [2], the “methylation on microRNA, FTD parental strain” value came to 1 and the “methylation on microRNA, FTD resistant strain” value was 10.

“miR-3690 (ACCUGGACCCAGCGUAGACAAAG; chemistry not fully specified; listed as Homo sapiens)”: in data set [2], the “methylation on microRNA, 5-FU parental strain” value is 0; the “methylation on microRNA, 5-FU resistant strain” value was determined as 0; the “Rate of change, FTD resistance (fold)” value was found to be 0.00 fold; the “methylation on microRNA, FTD parental strain” value turned out to be 1. Also, the “methylation on microRNA, FTD resistant strain” value in data set [2] came to 0.

In the case of “miR-4435 (AUGGCCAGAGCUCACACAGAGG; chemistry not fully specified; listed as Homo sapiens)”, in data set [2], the “Rate of change 5-FU (fold)” value was 2.38 fold; the “miRNA methylation, 5-FU parental strain” value worked out at 28; the “miRNA methylation, 5-FU resistant strain” value came to 14; the “miRNA methylation, FTD parental strain” value came to 46. Further, in data set [2], the “miRNA methylation, FTD resistant strain” value is reported as 100 and the “Rate of change, FTD (fold)” value is recorded as 1.41 fold.

Turning to “miR-4467 (UGGCGGCGGUAGUUAUGGGCUU; chemistry not fully specified; listed as Homo sapiens)”, in data set [2], the “Rate of change 5-FU (fold)” value is recorded as “(1.00) fold”; the “miRNA methylation, 5-FU parental strain” value turned out to be 6; the “miRNA methylation, 5-FU resistant strain” value turned out to be 6; the “miRNA methylation, FTD parental strain” value was found to be 1. Besides, in data set [2], the “miRNA methylation, FTD resistant strain” value was 12 and the “Rate of change, FTD (fold)” value is 8.00 fold.

With “miR-4754 (AUGCGGACCUGGGUUAGCGGAGU; chemistry not fully specified; listed as Homo sapiens)”, in data set [2], the “Rate of change, 5-FU resistance (fold)” value is on record as “(1.33) fold”; the “methylation on microRNA, 5-FU parental strain” value came to 3; the “methylation on microRNA, 5-FU resistant strain” value is 4; the “Rate of change, FTD resistance (fold)” value was 0.00 fold. Besides, in data set [2], the “methylation on microRNA, FTD parental strain” value worked out at 4 and the “methylation on microRNA, FTD resistant strain” value came out at 0.
